Data as given in patent US10421759B2, “Fused bicyclic compounds for the treatment of disease” (AKARNA THERAPEUTICS, LTD., priority 2015, dated 2019).

Tests used:
FXR = target: T1, FXR (Homo sapiens, UniProt Q96RI1); assay: FXR Agonist Tranactivation Assay (luciferase reporter, CV-1 cells); assay type: cell-based; conditions: at 10 μM; CV-1 cells cotransfected with pCMV6-NR1H4 (FXR), pCMV6-RXRA and pEcREX7-TK-Luc; positive control 10 uM XL-335; 20 hours
T1 construct: expressed in transfected cells; host or cells: CV-1 cells, transient cotransfection
T1 sequence (Q96RI1 1-486): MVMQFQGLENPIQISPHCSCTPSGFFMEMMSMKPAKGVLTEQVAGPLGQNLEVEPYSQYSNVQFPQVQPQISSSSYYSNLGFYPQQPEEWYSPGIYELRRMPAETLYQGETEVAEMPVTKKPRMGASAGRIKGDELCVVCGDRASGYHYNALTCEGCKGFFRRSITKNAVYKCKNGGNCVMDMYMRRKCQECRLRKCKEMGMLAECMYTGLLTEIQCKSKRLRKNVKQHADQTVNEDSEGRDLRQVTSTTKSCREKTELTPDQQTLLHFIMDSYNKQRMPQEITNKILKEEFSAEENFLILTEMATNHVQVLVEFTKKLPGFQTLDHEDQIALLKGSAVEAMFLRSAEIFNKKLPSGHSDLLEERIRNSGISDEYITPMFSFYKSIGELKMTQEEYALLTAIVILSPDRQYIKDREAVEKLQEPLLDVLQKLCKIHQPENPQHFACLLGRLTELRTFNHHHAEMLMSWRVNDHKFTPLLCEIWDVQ
T1 sequence (P19793 1-462 partner): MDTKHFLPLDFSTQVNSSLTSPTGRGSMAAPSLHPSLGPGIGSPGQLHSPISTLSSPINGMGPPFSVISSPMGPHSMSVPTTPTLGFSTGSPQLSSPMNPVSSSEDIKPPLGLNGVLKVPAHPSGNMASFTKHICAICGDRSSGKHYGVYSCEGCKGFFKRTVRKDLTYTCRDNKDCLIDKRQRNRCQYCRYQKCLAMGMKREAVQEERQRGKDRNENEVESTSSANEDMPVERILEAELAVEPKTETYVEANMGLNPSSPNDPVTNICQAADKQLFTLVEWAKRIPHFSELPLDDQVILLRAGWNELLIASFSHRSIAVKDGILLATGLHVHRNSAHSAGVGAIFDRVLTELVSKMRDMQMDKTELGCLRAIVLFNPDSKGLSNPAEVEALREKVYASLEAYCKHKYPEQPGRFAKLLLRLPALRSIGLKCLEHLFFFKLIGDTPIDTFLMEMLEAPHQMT
Procedure: CV-1 cells were transiently cotransfected with pCMV6-NR1H4 (FXR), pCMV6-RXRA and reporter plasmid pEcREX7-TK-Luc. Five hours after transfection, cells were trypsinized and dispensed into 96-well plates at a concentration of 10,000 cells per well.
Compound Dilution and Addition: Starting from 3.33 mM of compound in DMSO solution a 10-point 3-fold serial dilution was made by diluting 5 μl of compound into 10 μl of DMSO. The serially diluted compound was then diluted 1:33 into DMEM. This medium was then diluted ten-fold into the culture medium with the cells (10 μl/well). All concentration points are assayed in duplicate. Plates were incubated at 37° C. for 20 hours.
Luciferase activity Readout: After the incubation 20 μl of culture medium were removed from each well and mixed with 50 μl of assay solution (Pierce™ Gaussia Luciferase Flash Assay Kit). The luminescence was measured immediately after addition of the Luc substrate with an Envision microplate reader.
Data Reduction and Analysis: The raw data was uploaded to CDD and dose-response curves were generated using the Levenberg-Marquardt algorithm integrated into CDD. As a positive control 10 uM XL-335 and as a negative control DMSO is included on each plate and used to normalize the data with the CDD built-in normalization function.

Mouse SHP = assay: Gene Expression Assay (liver qPCR after p.o. dosing); assay type: in vivo; conditions: C57BL/6 mice, 10 mg/kg p.o., liver collected 4 hours post dosing
Procedure: C57BL/6 mice (3 per group) were dosed p.o. with 10 mg/kg of compound 20. Livers were collected at 4 hours post dosing and transferred into RNALater solution immediately. Tissues were stored at 4° C. until RNA isolation. RNA was isolated, quantified and amplified; qPCR was performed using SuperScript® III Platinum® SYBR®Green One-Step qRT-PCR Kit (Cat no. 11736-051). Primers used are as listed: Mouse Cyp7A1: For: (SEQ. ID NO: 1) […] Rev: (SEQ. ID NO: 2) AGTGGTGGCAAAATTCCCA; Mouse SHP: For: (SEQ. ID NO: 3) […] Rev: (SEQ. ID NO: 4) AGCCTCCTGTTGCAGGTGT; Mouse GAPDH: For: (SEQ. ID NO: 5) […] Rev: (SEQ. ID NO: 6) […].

Mouse Cyp7A1 = assay: as above; assay type: in vivo; conditions: C57BL/6 mice, 10 mg/kg p.o., liver collected 4 hours post dosing
Procedure: C57BL/6 mice (3 per group) were dosed p.o. with 10 mg/kg of compound 20. Livers were collected at 4 hours post dosing and transferred into RNALater solution immediately. Tissues were stored at 4° C. until RNA isolation. RNA was isolated, quantified and amplified; qPCR was performed using SuperScript® III Platinum® SYBR®Green One-Step qRT-PCR Kit (Cat no. 11736-051). Primers used are as listed: Mouse Cyp7A1: For: (SEQ. ID NO: 1) [NT] Rev: (SEQ. ID NO: 2) [NT]; Mouse SHP: For: (SEQ. ID NO: 3) [NT] Rev: (SEQ. ID NO: 4) [NT]; Mouse GAPDH: For: (SEQ. ID NO: 5) [NT] Rev: (SEQ. ID NO: 6) [NT]

| SMILES | activation compared to the positive control (FXR) | Avg. % mRNA induction, SHP (Mouse SHP) [%] | Avg. % mRNA induction, CYP7a (Mouse Cyp7A1) [%] |
| --- | --- | --- | --- |
| CC(C)OC(=O)C1=CN(C(=O)c2ccc(OCC[N+]3(C)CCOCC3)cc2)CC(C)(C)c2c(C(F)(F)F)n[nH]c21 [compound 13] | inactive |  |  |
| CCOC(=O)C1=CN(C(=O)N2CC[N+](C)(C)CC2)CC(C)(C)c2c1[nH]c1ccccc21.[I-] [compound 20, 4-(5-(ethoxycarbonyl)-1,1-dimethyl-1,2,3,6-tetrahydroazepino[4,5-b]indole-3-carbonyl)-1,1-dimethylpiperazin-1-ium iodide] | 86% | 266 | 57 |
